The results in this text go back to patent US7288567B2, “Inhibitors of histone deacetylase” (Methylgene Inc., priority 2000, dated 2007).

pIC50: −log10 of the molar value.

Assay [1] has as its system histone deacetylase enzyme in nuclear extracts from H446 cells (pooled HDACs). The assay is described as follows: Histone deacetylase inhibition, H446 nuclear extracts (pooled HDACs). It is filed as biochemical, human. The conditions noted are these: for pooled HDACs percent inhibition: percent inhibition at 20 μM (footnote); for pIC50: H446 nuclear extract, [3H]-acetylated histone substrate. As to the method:
HDAC inhibitors were screened against histone deacetylase enzyme in nuclear extracts prepared from the human small cell lung cancer cell line H446 (ATTC HTB-171) and against a cloned recombinant human HDAC-1 enzyme expressed and purified from a Baculovirus insect cell expression system.
For deacetylase assays, 20,000 cpm of the [^3H]-metabolically labeled acetylated histone substrate (M. Yoshida et al., J. Biol. Chem. 265(28): 17174-17179 (1990)) was incubated with 30 μg of H446 nuclear extract or an equivalent amount of the cloned recombinant hHDAC-1 for 10 minutes at 37° C. The reaction was stopped by adding acetic acid (0.04 M, final concentration) and HCl (250 mM, final concentration). The mixture was extracted with ethyl acetate and the released [^3H]-acetic acid was quantified by scintillation counting. For inhibition studies, the enzyme was preincubated with compounds at 4° C. for 30 minutes prior to initiation of the enzymatic assay. IC50 values for HDAC enzyme inhibitors were determined by performing dose response curves with individual compounds and determining the concentration of inhibitor producing fifty percent of the maximal inhibition.

Assay [2] has as its target T1, recombinant human HDAC-1 enzyme (rHDAC-1) (Homo sapiens, UniProt Q13547).
T1 construct: made in house; host or cells: Baculovirus insect cell expression system
The assay is described as follows: Histone deacetylase inhibition, recombinant human HDAC-1. The conditions noted are these: cloned recombinant human HDAC-1, Baculovirus insect cell expression; read-out: rHDAC-1 IC50. The format is biochemical. As to the method:
The reaction was stopped by adding acetic acid (0.04 M, final concentration) and HCl (250 mM, final concentration). The mixture was extracted with ethyl acetate and the released [^3H]-acetic acid was quantified by scintillation counting. For inhibition studies, the enzyme was preincubated with compounds at 4° C. for 30 minutes prior to initiation of the enzymatic assay. IC50 values for HDAC enzyme inhibitors were determined by performing dose response curves with individual compounds and determining the concentration of inhibitor producing fifty percent of the maximal inhibition.

T1 sequence (Q13547 whole entry): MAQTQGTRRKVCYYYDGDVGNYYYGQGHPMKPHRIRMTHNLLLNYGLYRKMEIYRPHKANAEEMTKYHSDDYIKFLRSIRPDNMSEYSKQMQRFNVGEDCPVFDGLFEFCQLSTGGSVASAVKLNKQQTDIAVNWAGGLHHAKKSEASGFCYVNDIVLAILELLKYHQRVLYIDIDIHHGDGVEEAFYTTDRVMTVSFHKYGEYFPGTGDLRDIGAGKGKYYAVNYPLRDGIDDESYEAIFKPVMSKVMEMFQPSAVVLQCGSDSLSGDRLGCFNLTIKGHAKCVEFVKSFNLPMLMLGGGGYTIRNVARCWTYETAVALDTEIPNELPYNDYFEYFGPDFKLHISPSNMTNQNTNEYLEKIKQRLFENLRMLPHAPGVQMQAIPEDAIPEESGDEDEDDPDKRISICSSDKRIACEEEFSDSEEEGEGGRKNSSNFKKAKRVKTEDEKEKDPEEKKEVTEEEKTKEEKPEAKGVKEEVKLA

As for `O=C(CCCCCC/C(=N/O)c1ccc(-c2ccccc2)cc1)NO` [(Z)-51h, N-Hydroxy-8-(Z)-oximino-8-(4-biphenyl)octanamide], the “pooled HDACs percent inhibition” value in assay [1] is recorded as 75%.
`COC(c1ccc(N(C)C)cc1)C(C)/C=C(C)/C=C/C(=O)NO` (stereo not drawn) [Compound 33, N-Hydroxy-4,6-dimethyl-7-methoxy-7-[4-(N,N-dimethylamino)phenyl]-2,4-heptadienamide] gave a pIC50 in assay [1] below 5.00.
For `O=C(CCCCCCC(=O)c1ccccn1)NO` [Compound 141a2, N-Hydroxy-7-[(2-pyridyl)carbonyl]heptanamide], the “pooled HDACs percent inhibition @ 1 μM” value in assay [1] (@ 1 μM) stood at 12%@ 1 μM.
In turn, `O=C(CCCCCCC(=O)c1ccc(Br)cc1)NO` [Compound 52d, N-hydroxy-7-(4-bromobenzoyl)heptanamide] had a pIC50 in assay [1] of 7.30.
Still for that read-out and setting: in the case of `CC(CCCCCC(=O)c1ccc2ccccc2c1)C(=O)NO` (stereo not drawn) [Compound 175, N-Hydroxy-2-methyl-7-(2-naphthoyl)heptanamide] it was 5.60; in that of `O=C(CCCCCCC(=O)c1cccs1)NO` [Compound 52k, N-hydroxy-7-(2-thiophene)carbonylheptanamide], 6.05.
Take `Nc1ccccc1NC(=O)CCCCCN1C(=O)c2cccc3cc(O)cc(c23)C1=O` [Compound 251a, N-(2-Aminophenyl)-6-[2-(5-hydroxy-1,3-dioxo-1H,3H-benzo[de]isoquinolinyl)]hexanamide]: in assay [1], the “pooled HDACs percent inhibition” value is listed as 0%.
Take `Nc1ccccc1NC(=O)CCCCCCC(=O)c1cccc(-c2ccccc2)c1` [Compound 132, N-(2-Aminophenyl)-7-[(3-biphenyl)carbonyl]heptanamide]: in assay [2], the pIC50 was 6.10.
On the same count and under the same terms, next, `O=C(CCCCCCC(=O)c1cccc(-c2ccccc2)c1)NO` [Compound 131, N-Hydroxy-7-[(3-biphenyl)carbonyl]heptanamide]: 8.10; `Nc1ccccc1NC(=O)CCCCCN1C(=O)c2ccc([N+](=O)[O-])cc2C1=O` [Compound 243e, N-(2-Aminophenyl)-6-(5-nitro-N-phthaloyl)hexanamide]: 4.92; `CN(CCCCCC(=O)Nc1ccccc1N)Cc1ccc2ccccc2c1` [Compound 210, N-(2-Aminophenyl)-N-(2-naphthylmethyl-methylamino)hexanamide]: 5.00.
Turning to `COc1ccc(-c2ccc(C(=O)CCCCCCC(=O)NO)cn2)cc1OC` [Compound 150, N-Hydroxy-7-[5-(2-(3,4-dimethoxyphenyl)pyridyl)carbonyl]heptanamide], the pIC50 in assay [2] was 7.30.
For the compound `O=C(CCCCSCC(=O)c1ccc(-c2ccccc2)cc1)NO` [Compound 226b, N-Hydroxy-5-(4-biphenylcarbonylmethanesulfanyl)pentanamide], the pIC50 in assay [2] was 8.22.
Take `COC(C/C=C/C=C/C(=O)NO)c1ccccc1` (stereo not drawn) [Compound 12, N-Hydroxy-7-methoxy-7-phenyl-2,4-heptadienamide]: in assay [1], the pIC50 is 5.03.
Take `O=C(CCCCCC(=O)c1ccc(-c2ccccc2)cc1)Nc1n[nH]c(=S)s1` [Compound 128, N-(4,5-Dihydro-5-thioxo-1,3,4-thiadiazol-2-yl)-6-[(4-biphenyl)carbonyl]hexanamide]: the pIC50 in assay [2] was 4.72.
In turn, `CC(/C=C/C(=O)NO)=C\C(C)Cc1ccc(N(C)C)cc1` (stereo not drawn) [Compound 38, N-Hydroxy-4,6-dimethyl-7-[4-(N,N-dimethylamino)phenyl]-2,4-heptadienamide] showed a pIC50 in assay [1] below 4.70.
As to `Nc1ccccc1NC(=O)CCCCCN1C(=O)c2cccc3c(Br)ccc(c23)C1=O` [Compound 251b, N-(2-Aminophenyl)-6-[2-(6-bromo-1,3-dioxo-1H,3H-benzo[de]isoquinolinyl)]-hexanamide], in assay [2], the pIC50 was 6.00.
Consider `Nc1ccccc1NC(=O)CCCCCN1C(=O)c2ccncc2C1=O` [Compound 246b], for which the pIC50 in assay [2] is 4.85.
Consider `Nc1ccccc1NC(=O)CCCCCCC(=O)c1ccccc1` [Compound 53a, N-(2-Aminophenyl)-7-benzoylheptanamide], for which, in assay [2], the pIC50 was 6.22.
The same measure, in the same setting: next, `Nc1ccccc1NC(=O)CCCCCN1C(=O)c2cc(Cl)c(Cl)cc2C1=O` [Compound 243f, N-(2-Aminophenyl)-6-(5,6-dichloro-N-phthaloyl)hexanamide]: 5.52; `O=C(CCCCCCC(=O)c1ccc(NCc2cccnc2)cc1)NO` [Compound 138f, N-Hydroxy-7-[4(N-3-aminomethylpyridyl)benzoyl]heptanamide]: 7.70.
On the same count and under the same terms, in the case of `O=C(CCCCCCC(=O)c1ccc(-c2ccccc2)cc1)Nc1n[nH]c(=S)s1` [Compound 79, N-(4,5-Dihydro-5-thioxo-1,3,4-thiadiazol-2-yl)-7-[(4-biphenyl)carbonyl]-heptanamide] it was 5.05.
On the same count and under the same terms, next, `CC(CCCCC(=O)c1ccc2ccccc2c1)CC(=O)Nc1ccccc1N` (stereo not drawn) [Compound 198, (Z)-N-(2-Aminophenyl)-3-methyl-7-(2-naphthoyl)heptanamide]: 4.80.
In the case of `O=C(CCCCCC/C(=N\O)c1ccc2ccccc2c1)NO` [Compound 97, N-Hydroxy-8-(E)-oximino-8-(2-naphthyl)octanamide], the pIC50 in assay [1] was 7.52.
In the case of `CC(C)(C)OC(=O)N1CCN(c2ccc(C(=O)CCCCCCC(=O)NO)cc2)CC1` [Compound 138c1, N-Hydroxy-7-[4-(1-(4-tert-butyloxycarbonylpiperazinyl))benzoyl]heptanamide], the pIC50 in assay [2] was 7.52.
Still for that read-out and setting: in the case of `O=C(CCCCCCC(=O)c1ccc(N2CCNCC2)cc1)NO` [Compound 138c2] it was 7.52.
Turning to `O=C(CCCCCC/C(=N\O)c1ccc(-c2ccccc2)cc1)NO` [(E)-51h, N-Hydroxy-8-(E)-oximino-8-(4-biphenyl)octanamide], the “pooled HDACs percent inhibition” value in assay [1] was 99%.
As for `Nc1ccccc1NC(=O)CCCCCCC(O)c1cccc(-c2ccccc2)c1` (stereo not drawn) [Compound 133, N-(2-Aminophenyl)-8-(3-biphenyl)-8-hydroxy-octanamide], in assay [2], the pIC50 was 6.00.
On to `Nc1ccccc1NC(=O)CCCCCn1cnc2ccccc2c1=O` [Compound 239a, N-(2-Aminophenyl)-6-[3-(4-oxo-4H-quinazolinyl)]hexanamide], for which the “pooled HDACs percent inhibition” value in assay [1] came to 0%.
For `CN(CCCCCC(=O)NO)Cc1ccc2ccccc2c1` [Compound 209, N-Hydroxy-N-(2-naphthylmethyl-methylamino)hexanamide], the pIC50 in assay [2] is 7.30.
Still for that read-out and setting: in the case of `Nc1ccccc1NC(=O)CCCCSCC(=O)c1ccc(-c2ccccc2)cc1` [Compound 227b, N-(2-Aminophenyl)-5-(4-biphenylcarbonylmethanesulfanyl)pentanamide] it was 5.52; in that of `CON=C(CCCCCCC(=O)Nc1ccccc1N)c1cccc(-c2ccccc2)c1` (mixture of isomers) [Compound 135, N-(2-Aminophenyl)-8-(E)-O-methyl-oximino-8-(3-biphenyl)octanamide], 5.70.
Take `Nc1ccccc1NC(=O)CCCCS(=O)(=O)CC(=O)c1ccc2ccccc2c1` [Compound 230a, N-(2-Aminophenyl)-5-(2-naphthoylmethylsulfonyl)pentanamide]: the negative-log IC50 (pIC50) in assay [2] is 5.30.
`O=C(CCCCCCC(=O)c1ccccc1)Nc1ccccc1O` [Compound 86, N-(2-Hydroxyphenyl)-7-(benzoyl)heptanamide]: the pIC50 in assay [2] is 5.30.
On the same count and under the same terms, in the case of `Nc1ccccc1NC(=O)CCCCCCOc1ccc(-c2ccccc2)cc1` [Compound 234, N-(2-Aminophenyl)-7-(4-biphenyloxy)heptanamide] it was 6.00; in that of `CN(CCCCC(=O)NO)CCc1ccc2ccccc2c1` [Compound 216, N-Hydroxy-5-N-[2-(2-naphthylethyl)-methylamino]pentanamide], 6.52.
`Nc1ccccc1NC(=O)CCCCCN1C(=O)c2ccc(O)cc2C1=O` [Compound 243g, N-(2-Aminophenyl)-6-(5-hydroxy-N-phthaloyl)hexanamide]: the pIC50 in assay [2] is 5.52.
In the case of `CC(CCC(=O)NO)CC(C)C(=O)c1ccc(N(C)C)cc1` (stereo not drawn) [Compound 62, N-Hydroxy-4-Methyl-6-[4-(N,N-dimethylamino)benzoyl]heptanamide], the pIC50 in assay [1] was 5.96.
For the compound `C/C(=C/C(=O)Nc1ccccc1N)CCCCC(=O)c1ccc2ccccc2c1` [Compound 194, (Z)-N-(2-Aminophenyl)-3-methyl-7-(2-naphthoyl)-2-heptenamide], the pIC50 in assay [2] is 4.62.
`COc1ccc(C(OC)C(C)(C)/C=C/C=C/C(=O)Nc2ccccc2N)cc1` (stereo not drawn) [Compound 27, N-(2-Aminophenyl)-6,6-dimethyl-7-methoxy-7-(4-methoxyphenyl)-2,4-heptadienamide] gave a pIC50 in assay [1] below 4.00.
For the compound `O=C(CCCCCN(Cc1ccc2ccccc2c1)C(=O)OCc1ccccc1)NO` [Compound 220a, N-Hydroxy-6-N-(Benzyloxycarbonyl-2-naphthylmethylamino)hexanamide], the pIC50 in assay [2] was 7.70.
As to `O=C(CCCCSCC(=O)c1ccc2ccccc2c1)NO` [Compound 226a, N-Hydroxy-5-(2-naphthoylmethylsulfanyl)pentanamide], the pIC50 in assay [2] was 8.15.

As a reminder, the pIC50 is −log10 of the IC50, conventionally taken in molar units.
